Converted amounts (≈) assume the structure as drawn. Like-named read-outs stand apart in the source and are kept apart here.
Tests used:
[1] = system: P 388 leukemia; test: in vivo activity against P 388 leukemia (treatment i.p. on day 1 after tumor implantation)
[2] = system: HeLa cells; test: in vitro test against HeLa cells; type: cell-based; conditions: Homo sapiens, read-out: ID50 on HeLa Cells
Protocol: The biological activity of the compounds according to the invention was tested in vitro against HeLa cells in comparison with daunorubicin and doxorubicin.
Compound ID50 on HeLa Cells (ng/ml)

| IC50 ([2]; in vitro, HeLa cells) | SMILES | LTS (long term survivors) ([1]; 4.4 mg/kg) | T/C % ([1]; 4.4 mg/kg) | Toxicity ([1]; 4.4 mg/kg) | LTS (long term survivors) ([1]; 6.6 mg/kg) | T/C % ([1]; 6.6 mg/kg) | Toxicity ([1]; 6.6 mg/kg) | IC50 ([2]; HeLa) | LTS (long term survivors) ([1]; 2.9 mg/kg) | Toxicity ([1]; 2.9 mg/kg) | also measured |
| --- | --- | --- | --- | --- | --- | --- | --- | --- | --- | --- | --- |
| – | COc1cccc2c1C(=O)c1c(O)c3c(c(O)c1C2=O)C[C@@](O)(C(=O)CO)C[C@@H]3O[C@H]1C[C@H](N)[C@H](O)[C@H](C)O1 [Doxorubicin, reference compound] | 2/10 | 209% | 0/8 | 0/10 | 233% | 0/8 | 0.0095 µg/mL (≈ 0.0175 µM) | – | – | – |
| 0.0059 µg/mL (≈ 0.0106 µM) | COc1cccc2c1C(=O)c1c(O)c3c(c(O)c1C2=O)C[C@@](O)(C(=O)CO)C[C@@H]3O[C@H]1C[C@@H](N)[C@@H](OC)[C@H](C)O1 [3',4'-diepi-4'-O-methyl doxorubicin, 3',4'-diepi-4'-O-methyl-doxorubicin] | 0/10 | 109% | 10/10 | 0/10 | 76% | 10/10 | – | 0/10 | 2/10 | LTS (long term survivors) ([1]; 1.9 mg/kg): 0/10; T/C % ([1]; 1.9 mg/kg): 180%; Toxicity ([1]; 1.9 mg/kg): 0/10; T/C % ([1]; 2.9 mg/kg): 200% |
| – | COc1cccc2c1C(=O)c1c(O)c3c(c(O)c1C2=O)C[C@@](O)(C(C)=O)C[C@@H]3O[C@H]1C[C@H](N)[C@H](O)[C@H](C)O1 [Daunorubicin, reference compound] | 0/18 | – | 0/18 | 0/8 | 163% | 3/8 | 0.014 µg/mL (≈ 0.0265 µM) | 0/18 | 0/18 | – |
| 0.036 µg/mL (≈ 0.0665 µM) | COc1cccc2c1C(=O)c1c(O)c3c(c(O)c1C2=O)C[C@@](O)(C(C)=O)C[C@@H]3O[C@H]1C[C@@H](N)[C@@H](OC)[C@H](C)O1 [3',4'-diepi-4'-O-methyl daunorubicin, 3',4'-diepi-4'-O-methyl-daunorubicin] | – | – | – | 0/8 | 145% | 0/8 | – | – | – | LTS (long term survivors) ([1]; 10 mg/kg): 0/8; T/C % ([1]; 10 mg/kg): 154%; Toxicity ([1]; 10 mg/kg): 0/8; LTS (long term survivors) ([1]; 15 mg/kg): 0/18; Toxicity ([1]; 15 mg/kg): 0/18; LTS (long term survivors) ([1]; 22 mg/kg): 0/10; T/C % ([1]; 22 mg/kg): 222%; Toxicity ([1]; 22 mg/kg): 0/10; LTS (long term survivors) ([1]; 33 mg/kg): 1/10; T/C % ([1]; 33 mg/kg): 231%; Toxicity ([1]; 33 mg/kg): 2/10 |
